We go through twelve molecules from patent publication US20220306609A1, “BICYCLIC COMPOUNDS AS ANDROGEN RECEPTOR MODULATORS” (NIDO BIOSCIENCES, INC., priority 2021, published 2022).

Usually IC50 stands for the concentration needed to halve the response being measured. A high value points to a need for much substance.

The target in the test is T1, androgen receptor (AR) (Homo sapiens, UniProt P10275, T878A).
T1 construct: LNCaP cells expressing ARR2PB-FireflyLuc and CMV-RenillaLuc; endogenous in cells; host or cells: LNCaP
T1 sequence (P10275 1-920 T878A): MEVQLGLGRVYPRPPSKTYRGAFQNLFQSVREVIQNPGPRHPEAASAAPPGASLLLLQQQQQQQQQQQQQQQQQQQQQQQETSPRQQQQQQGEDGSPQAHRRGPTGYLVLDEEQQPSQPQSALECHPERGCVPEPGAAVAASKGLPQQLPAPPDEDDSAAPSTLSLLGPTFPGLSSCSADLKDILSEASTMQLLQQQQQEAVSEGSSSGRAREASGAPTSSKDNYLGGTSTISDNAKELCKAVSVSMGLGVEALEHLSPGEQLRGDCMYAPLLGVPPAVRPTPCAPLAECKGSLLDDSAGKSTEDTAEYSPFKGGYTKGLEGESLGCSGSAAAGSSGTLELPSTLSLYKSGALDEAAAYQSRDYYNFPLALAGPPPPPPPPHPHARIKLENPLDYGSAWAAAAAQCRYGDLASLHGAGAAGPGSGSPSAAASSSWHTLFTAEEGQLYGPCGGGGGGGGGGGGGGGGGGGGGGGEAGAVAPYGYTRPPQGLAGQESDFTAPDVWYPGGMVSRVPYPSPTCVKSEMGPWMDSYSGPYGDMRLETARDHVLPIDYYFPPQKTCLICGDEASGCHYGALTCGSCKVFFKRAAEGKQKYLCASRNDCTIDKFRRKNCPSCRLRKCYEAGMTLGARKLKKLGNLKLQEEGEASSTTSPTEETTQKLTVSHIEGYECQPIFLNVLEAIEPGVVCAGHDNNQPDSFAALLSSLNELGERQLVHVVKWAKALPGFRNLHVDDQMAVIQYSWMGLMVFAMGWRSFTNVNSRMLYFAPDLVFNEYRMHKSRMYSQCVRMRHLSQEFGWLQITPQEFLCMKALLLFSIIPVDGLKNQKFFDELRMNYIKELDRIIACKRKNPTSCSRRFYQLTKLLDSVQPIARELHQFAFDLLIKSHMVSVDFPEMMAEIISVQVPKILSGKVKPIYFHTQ
Kind of test: LNCaP ARR2PB-FireflyLuc / CMV-RenillaLuc reporter assay, antagonist mode. Type of test: cell-based. To be noted: LNCaP cells expressing ARR2PB-FireflyLuc and CMV-RenillaLuc; +/- 0.5 nM DHT; 48 h at 37° C. On the procedure:
LNCaP cells expressing ARR2PB-FireflyLuc and CMV-RenillaLuc were treated with indicated concentrations of test compounds, enzalutamide ([…]), or DHT (positive control)+/−0.5 nM DHT for 48 h at 37° C. Fluorescent signals were read with the ImageXpress Micro Confocal System. Remaining activity (antagonist mode) was calculated as % Remaining Activity=100×[(ReadSample−[…])/(HCave−LCave)] where HC is cells treated with 0.5 nM DHT only and LC is cells treated with 10 uM enzalutamide+0.5 nM DHT. Activation (agonist mode) was calculated as % Activation=100×[(ReadSample−LCave)/(HCave−LCave)] where HC is cells treated with 1 uM DHT and LC is cells treated with DMSO. Dose response curves and IC50 values were calculated using non-linear regression analysis in XLfit.
The designation “A” indicates an IC50 value of >10 μM, “B” indicates an IC50 value between 1 μM and 10 μM; “C” indicates an IC50 value between 100 nM and 1 μM; and “D” indicates an IC50 value of less than 100 nM.

In turn, `N#Cc1cccc2c(-c3ccn(C4CC4)n3)c[nH]c12` [Compound 009, 3-(1-cyclopropylpyrazol-3-yl)-1H-indole-7-carbonitrile] displayed an IC50 of 0.1 to 1 µM.

In turn, `CCN1N=C(c2c[nH]c3c(C#N)cccc23)CCC1=O` [Compound 001, 3-(1-ethyl-6-oxo-4,5-dihydropyridazin-3-yl)-1H-indole-7-carbonitrile] returned an IC50 of 0.1 to 1 µM.

In the case of `N#Cc1cccc2c(-c3ccc(=O)n(CC(F)F)n3)c[nH]c12` [Compound 004, 3-[1-(2,2-difluoroethyl)-6-oxopyridazin-3-yl]-1H-indole-7-carbonitrile], the IC50 was in the range of 0.1 to 1 µM.

In turn, `CCn1nc(-c2c[nH]c3c(C#N)cccc23)cc(OC)c1=O` [Compound 006, 3-(1-ethyl-5-methoxy-6-oxopyridazin-3-yl)-1H-indole-7-carbonitrile] returned an IC50 of 1 to 10 µM.

Turning to `CCn1cc(-c2c[nH]c3c(C#N)cccc23)cn1` [Compound 007, 3-(1-ethylpyrazol-4-yl)-1H-indole-7-carbonitrile], the IC50 lay within 1 to 10 µM.

`CCn1nc(-c2c[nH]c3c(C#N)cccc23)ccc1=O` [Compound 002, 3-(1-ethyl-6-oxopyridazin-3-yl)-1H-indole-7-carbonitrile] yielded an IC50 below 0.1 µM.

In turn, `CCn1nc(-c2c[nH]c3c(C#N)cccc23)cc1C` [Compound 011, 3-(1-ethyl-5-methylpyrazol-3-yl)-1H-indole-7-carbonitrile] gave an IC50 of 0.1 to 1 µM.

As for `CCn1nc(-c2c[nH]c3c(C#N)cccc23)c(C)cc1=O` [Compound 005, 3-(1-ethyl-4-methyl-6-oxopyridazin-3-yl)-1H-indole-7-carbonitrile], the half-inhibitory concentration (IC50) fell in the range of 1 to 10 µM.

For the molecule `CCn1ccc(-c2c[nH]c3c(C#N)cccc23)n1` [Compound 008, 3-(1-ethylpyrazol-3-yl)-1H-indole-7-carbonitrile], the IC50 was below 0.1 µM.

As to `CCn1nc(C)cc1-c1c[nH]c2c(C#N)cccc12` [Compound 012, 3-(2-ethyl-5-methylpyrazol-3-yl)-1H-indole-7-carbonitrile], the IC50 is below 0.1 µM.

With `CC(C)(O)Cn1ccc(-c2c[nH]c3c(C#N)cccc23)n1` [Compound 010, 3-[1-(2-hydroxy-2-methylpropyl)pyrazol-3-yl]-1H-indole-7-carbonitrile], the IC50 was above 10 µM.

The molecule `CCn1nc(-c2c[nH]c3c(Cl)nccc23)ccc1=O` [Compound 003, 6-[7-chloro-1H-pyrrolo[2,3-c]pyridin-3-yl]-2-ethylpyridazin-3-one] had an IC50 above 10 µM.
